Test results reported in patent US8575153B2 (Kowa Company, Ltd., priority 2008, dated 2013).
Structures can show the parent of a compound that is named as a salt.

Target: Recombinant human JAK3 enzyme (JAK3 kinase region; Ala795-Ser1124) (Homo sapiens, UniProt P52333)
Test: JAK3 Kinase Assay (Kinase-Glo luminescent, ATP consumption)
Settings: for inhibition at 0.1 µM / inhibition at 1 µM: read-out: Inhibition rate (%) of JAK3 kinase activity
Method: Recombinant human JAK3 enzyme (JAK3 kinase region; Ala795-Ser1124) was purchased from Carna Biosciences, Inc.
The reaction was conducted in a kinase buffer (reaction volume: a total of 50 μl) containing 8 mM MOPS (pH 7.0), 0.2 mM EDTA, a test compound solution prepared to each concentration and 0.5 μg/ml JAK3 enzyme using a 96-well polystyrene plate (clear-bottom white-wall). […] After incubating them at room temperature for 2 hours, 50 μl of Kinase-Glo Luminescent Kinase Assay reagent (Promega) was added to each well, and further incubated at room temperature for 10 minutes. Using a chemiluminescence microplate reader MicroLumat LB96P (Berthold), chemiluminescence intensity was measured to quantitate the amount of ATP remaining after reaction. From the amount of ATP consumed in the phosphorylation reaction, the inhibition rate (%) of JAK3 kinase activity was determined.

Sequence of Recombinant human JAK3 enzyme (JAK3 kinase region; Ala795-Ser1124) (P52333 795-1124): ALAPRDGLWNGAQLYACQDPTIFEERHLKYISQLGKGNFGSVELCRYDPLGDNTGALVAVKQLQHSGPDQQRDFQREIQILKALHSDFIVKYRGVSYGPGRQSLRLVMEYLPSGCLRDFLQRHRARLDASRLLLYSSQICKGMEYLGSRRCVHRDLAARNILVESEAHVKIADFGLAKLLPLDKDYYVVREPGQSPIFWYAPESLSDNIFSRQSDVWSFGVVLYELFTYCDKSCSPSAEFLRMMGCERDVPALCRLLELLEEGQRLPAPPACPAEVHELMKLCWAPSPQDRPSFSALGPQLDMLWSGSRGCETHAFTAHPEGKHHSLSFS

SMILES	inhibition at 0.1 µM [%]	also measured
NC(=O)c1cnc(Nc2ccc(N3CCC(O)CC3)cc2)cc1NCc1cccc(F)c1F [Example 187, 4-[(2,3-difluorobenzyl)amino]-6-{[4-(4-hydroxypiperidino)phenyl]amino}pyridine-3-carboxyamide]	85	–
NC(=O)c1cccc(CNc2cc(Nc3ccc(N4CCOCC4)cc3)ncc2C(N)=O)c1 [Example 115, 4-[(3-carbamoylbenzyl)amino]-6-[(4-morpholinophenyl)amino]pyridine-3-carboxyamide]	70	–
N#CCC(=O)N1CCN(c2ccc(Nc3cc(NCc4c(F)cccc4F)c(C(N)=O)cn3)cc2)CC1 [Example 266, 6-({4-[4-(cyanoacetyl)piperazin-1-yl]phenyl}amino)-4-[(2,6-difluorobenzyl)amino]pyridine-3-carboxyamide]	77	–
NC(=O)c1cnc(Nc2ccc(NC(=O)C3CCNCC3)cc2)cc1NCc1ccccc1 [Example 314, 4-(benzylamino)-6-({4-[piperidin-4-ylcarbonyl]amino]phenyl}amino)pyridine-3-carboxyamide hydrochloride]	60	–
CN1CCCC1CNc1cc(Nc2ccc(N3CCOCC3)cc2)ncc1C(N)=O (stereo not drawn) [Example 359, 4-{[(1-methylpyrrolidin-2-yl)methyl]amino}-6-[(4-morpholinophenyl)amino]pyridine-3-carboxyamide]	–	inhibition at 1 µM: 61%
NC(=O)c1cnc(Nc2ccc(N3CCNCC3)cc2)cc1NCc1cccnc1 [Example 355, 6-{(4-(piperazin-1-yl)phenyl]amino}-4-[(pyridin-3-ylmethyl)amino}pyridine-3-carboxyamide]	–	inhibition at 1 µM: 92%
CC(C)S(=O)(=O)N1CCN(c2cccc(Nc3cc(NCc4cc(F)cc(F)c4)c(C(N)=O)cn3)c2)CC1 [Example 174, 4-[(3,5-difluorobenzyl)amino]-6-({3-[4-(propan-2-ylsulfonyl)piperazin-1-yl]phenyl}amino) pyridine-3-carboxyamide]	–	Inhibition rate (%) of JAK3 kinase activity (test compound at 0.1 μM): 58%
NC(=O)c1cnc(Nc2ccc(N3CCOCC3)cc2)cc1NCc1cccc([N+](=O)[O-])c1 [Example 102, 6-[(4-morpholinophenyl)amino]-4-[(3-nitrobenzyl)amino]pyridine-3-carboxyamide]	53	–
N#Cc1ccc2ncn(-c3cc(NCc4cc(F)cc(F)c4)c(C(N)=O)cn3)c2c1 [Example 366, 6-(6-cyano-1H-benzimidazol-1-yl)-4-[(3,5-difluorobenzyl)amino]pyridine-3-carboxyamide]	–	inhibition at 1 µM: 9%
CCN(CC)CCN1CCN(c2ccc(Nc3cc(NCc4ccccc4)c(C(N)=O)cn3)cc2)CC1 [Example 236, 4-(benzylamino)-6-[(4-{4-[2-(diethylamino)ethyl]piperazin-1-yl}phenyl)amino]pyridine-3-carboxyamide]	83	–
CC(C)S(=O)(=O)N1CCN(c2ccc(Nc3cc(NCc4c(F)cccc4F)c(C(N)=O)cn3)cc2)CC1 [Example 172, 4-[(2,6-difluorobenzyl)amino]-6-({4-[4-(propan-2-ylsulfonyl)piperazin-1-yl]phenyl}amino) pyridine-3-carboxyamide]	59	–
CCN(CC)CCN1CCN(c2cccc(Nc3cc(NCc4cc(F)cc(F)c4)c(C(N)=O)cn3)c2)CC1 [Example 239, 6-[(3-{4-[2-(diethylamino)ethyl]piperazin-1-yl}phenyl)amino]-4-[(3,5-difluorobenzyl)amino]pyridine-3-carboxyamide]	57	–
NC(=O)c1cnc(Nc2ccc(S(N)(=O)=O)cc2)cc1NCc1cc(F)cc(F)c1 [Example 328, 4-[(3,5-difluorobenzyl)amino]-6-[(4-sulfamoylphenyl)amino]pyridine-3-carboxyamide]	70	–
Cc1ccc(S(=O)(=O)n2cc(-c3cc(NCc4cc(F)cc(F)c4)c(C(N)=O)cn3)c3cccnc32)cc1 [Example 370, 4-[(3,5-difluorobenzyl)amino]-6-{1-[(4-methylphenyl)sulfonyl}-1H-pyrrolo[2,3-b]pyridin-3-yl}pyridine-3-carboxyamide]	–	inhibition at 1 µM: 13%
CCN(CC)C(=O)N1CCC(Nc2ccc(Nc3cc(NCc4ccccc4)c(C(N)=O)cn3)cc2)CC1 [Example 290, 4-(benzylamino)-6-[(4-{[1-(diethylcarbamoyl)piperidin-4-yl]amino}phenyl)amino]pyridine-3-carboxyamide]	71	–
CC(C)N1CCN(c2ccc(Nc3cc(NCc4c(F)cccc4F)c(C(N)=O)cn3)cc2)CC1 [Example 153, 4-[(2,6-difluorobenzyl)amino]-6-({4-[4-(propan-2-yl)piperazin-1-yl]phenyl}amino)pyridine-3-carboxyamide]	94	–
COCCNS(=O)(=O)c1ccc(Nc2cc(NCc3cc(F)cc(F)c3)c(C(N)=O)cn2)cc1 [Example 330, 4-[(3,5-difluorobenzyl)amino]-6-({4-[(2-methoxyethyl)sulfamoyl]phenyl}amino)pyridine-3-carboxyamide]	59	–
CC(C)N1CCN(c2ccc(Nc3cc(NCc4cccnc4)c(C(N)=O)cn3)cc2)CC1 [Example 356, 6-({4-[4-(propan-2-yl)piperazin-1-yl]phenyl}amino)-4-[(pyridin-3-ylmethyl)amino]pyridine-3-carboxyamide]	–	inhibition at 1 µM: 92%

SMILES	inhibition at 0.1 µM [%]	also measured
CC(C)S(=O)(=O)Nc1cccc(Nc2cc(NCc3cc(F)cc(F)c3)c(C(N)=O)cn2)c1 [Example 165, 4-[(3,5-difluorobenzyl)amino]-6-({3-[(propan-2-ylsulfonyl)amino]phenyl}amino)pyridine-3-carboxyamide]	54	–
NC(=O)c1cnc(Nc2ccc(N3CCOCC3)cc2)cc1NCc1ccccn1 [Example 363, 6-[(4-morpholinophenyl)amino]-4-[(pyridin-2-ylmethyl)amino]pyridine-3-carboxyamide]	–	inhibition at 1 µM: 67%
N#CCC(=O)N1CCN(c2ccc(Nc3cc(NCc4ccccc4)c(C(N)=O)cn3)cc2)CC1 [Example 262, 4-(benzylamino)-6-({4-[4-(cyanoacetyl)piperazin-1-yl]phenyl}amino)pyridine-3-carboxyamide]	78	–
NC(=O)c1cnc(Nc2ccc(N3CCOCC3)cc2)cc1NCc1ccccc1Cl [Example 80, 4-[(2-chlorobenzyl)amino]-6-[(4-morpholinophenyl)amino]pyridine-3-carboxyamide]	79	–
C[C@@H]1CN(c2ccc(Nc3cc(NCc4cc(F)ccc4F)c(C(N)=O)cn3)cc2)C[C@H](C)N1 [Example 142, 4-[(2,5-difluorobenzyl)amino]-6-({4-[(3R,5S)-3,5-dimethylpiperazin-1-yl]phenyl}amino) pyridine-3-carboxyamide]	66	–
NC(=O)c1cnc(Nc2ccc(N3CCOCC3)cc2)cc1NCc1cc(F)cc(F)c1 [Example 91, 4-[(3,5-difluorobenzyl)amino]-6-[(4-morpholinophenyl)amino]pyridine-3-carboxyamide]	92	–
C[C@@H]1CN(c2ccc(Nc3cc(NCc4cccc(F)c4F)c(C(N)=O)cn3)cc2)C[C@H](C)N1 [Example 140, 4-[(2,3-difluorobenzyl)amino]-6-({4-[(3R,5S)-3,5-dimethylpiperazin-1-yl]phenyl}amino)pyridine-3-carboxyamide]	62	–
NC(=O)c1cnc(Nc2ccc(N3CCOCC3)cc2)cc1NCc1cc(F)cc(C(F)(F)F)c1 [Example 96, 6-[(4-morpholinophenyl)amino]-4-{[3-fluoro-5-(trifluoromethyl)benzyl]amino}pyridine-3-carboxyamide]	74	–
NC(=O)c1cnc(Nc2ccc(NC(=O)[C@@H]3CCCN3)cc2)cc1NCc1ccccc1 [Example 316, 4-(benzylamino)-6-({4-(L-prolylamino)phenyl]amino}pyridine-3-carboxyamide hydrochloride]	61	–
CC(C)N1CCN(c2ccc(Nc3cc(NCc4cccc(F)c4F)c(C(N)=O)cn3)cc2)CC1 [Example 150, 4-[(2,3-difluorobenzyl)amino]-6-({4-[4-(propan-2-yl)piperazin-1-yl]phenyl}amino)pyridine-3-carboxyamide]	66	–
NC(=O)c1cnc(Nc2ccc(N3CCOCC3)cc2)cc1NCc1c(F)cccc1F [Example 94, 4-[(2,6-difluorobenzyl)amino]-6-[(4-morpholinophenyl)amino]pyridine-3-carboxyamide]	96	–
CC(C)S(=O)(=O)Nc1ccc(Nc2cc(NCc3cc(F)cc(F)c3)c(C(N)=O)cn2)cc1 [Example 302, 4-[(3,5-difluorobenzyl)amino]-6-({4-[(propan-2-ylsulfonyl)amino]phenyl}amino)pyridine-3-carboxyamide]	90	–
CCN(CC)C(=O)Nc1ccc(Nc2cc(NCc3ccccc3)c(C(N)=O)cn2)cc1 [Example 279, 4-(benzylamino)-6-({4-[(diethylcarbamoyl)amino]phenyl}amino)pyridine-3-carboxyamide]	59	–
CCN(CC)C(=O)N1CCN(c2ccc(Nc3cc(NCc4ccccc4)c(C(N)=O)cn3)cc2)CC1 [Example 282, 4-(benzylamino)-6-({4-[(4-diethylcarbamoyl)piperazin-1-yl]phenyl}amino)pyridine-3-carboxyamide]	89	–
NC(=O)c1cnc(Nc2ccncc2)cc1NCc1ccccc1 [Example 372, 4-benzylamino-6-(pyridin-4-ylamino) pyridine-3-carboxyamide]	–	inhibition at 1 µM: 31%
CC(C)NC(=O)N1CCN(c2ccc(Nc3cc(NCc4cccc([N+](=O)[O-])c4)c(C(N)=O)cn3)cc2)CC1 [Example 284, 4-[(3-nitrobenzyl)amino]-6-[(4-{[4-(propan-2-yl)carbamoyl]piperazin-1-yl}phenyl)amino]pyridine-3-carboxyamide]	63	–
NC(=O)c1cnc(Nc2ccc(N3CCOCC3)cc2)cc1NC1CCOc2ccccc21 (stereo not drawn) [Example 351, 4-(3,4-dihydro-2H-1-benzopyran-4-ylamino)-6-[(4-morpholinophenyl)amino]pyridine-3-carboxyamide]	–	inhibition at 1 µM: 45%
CC(C)NC(=O)N1CCN(c2ccc(Nc3cc(NCc4ccccc4)c(C(N)=O)cn3)cc2)CC1 [Example 283]	79	–
